Some results are limits rather than exact numbers.

This experiment concerns the target T1, Androgen Receptor (AR) (Homo sapiens, UniProt P10275, T878A).
T1 construct: cell based immuno-fluorescence assay using the LNCaP prostate epithelial cell line; endogenous in cells; host or cells: LNCaP clone FGC (ATCC CRL-1740)
T1 sequence (P10275 1-920 T878A): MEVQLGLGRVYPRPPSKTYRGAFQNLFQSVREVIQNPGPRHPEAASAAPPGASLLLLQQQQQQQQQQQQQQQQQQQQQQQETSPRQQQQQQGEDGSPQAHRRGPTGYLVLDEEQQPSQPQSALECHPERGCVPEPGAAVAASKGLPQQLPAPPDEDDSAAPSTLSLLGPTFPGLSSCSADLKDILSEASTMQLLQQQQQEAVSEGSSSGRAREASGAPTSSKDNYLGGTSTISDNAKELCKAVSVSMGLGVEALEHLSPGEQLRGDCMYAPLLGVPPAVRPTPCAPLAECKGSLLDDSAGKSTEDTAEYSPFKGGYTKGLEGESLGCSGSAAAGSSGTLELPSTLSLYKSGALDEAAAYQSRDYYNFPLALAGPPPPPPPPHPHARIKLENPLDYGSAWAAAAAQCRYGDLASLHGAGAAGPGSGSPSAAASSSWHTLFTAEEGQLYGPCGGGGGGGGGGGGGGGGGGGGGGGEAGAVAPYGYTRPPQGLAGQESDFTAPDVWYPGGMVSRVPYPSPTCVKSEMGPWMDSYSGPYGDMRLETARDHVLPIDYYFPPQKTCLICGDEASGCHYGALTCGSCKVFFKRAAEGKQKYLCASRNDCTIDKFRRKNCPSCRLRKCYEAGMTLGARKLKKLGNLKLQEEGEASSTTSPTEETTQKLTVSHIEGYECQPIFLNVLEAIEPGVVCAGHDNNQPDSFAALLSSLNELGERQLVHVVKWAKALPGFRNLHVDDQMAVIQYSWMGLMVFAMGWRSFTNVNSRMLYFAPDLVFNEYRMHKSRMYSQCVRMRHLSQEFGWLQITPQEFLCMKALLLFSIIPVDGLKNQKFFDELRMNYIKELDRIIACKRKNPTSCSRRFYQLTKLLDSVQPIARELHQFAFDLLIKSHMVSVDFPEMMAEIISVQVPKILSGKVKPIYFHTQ
The experiment is described as follows: LNCaP Androgen Receptor Down-regulation Cell Assay (immunofluorescence end point). In kind it is cell-based. The conditions noted are these: LNCaP prostate carcinoma cells, compound incubation 20-22 hours, 50% reduction of the AR signal; read-out: Androgen Receptor Down-regulation Assay (a) IC50/μM. The gist of the method:
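LNCaP cells in medium with 5% charcoal-stripped FBS were plated overnight, then treated with a compound dilution series for 20-22 h at 37° C. After fixation, permeabilisation and immunostaining, AR-associated green fluorescence was quantified by laser-scanning microplate cytometry; AR down-regulation expressed as IC50 from fitted dose-response curves.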
With `N#Cc1ccc(CN2[C@@H]3CC[C@H]2CN(c2ccc4nnc(C(F)(F)F)n4n2)C3)cc1` [Example 841], the DC50 is 2.9 µM.
`N#Cc1cccc(CN2CCN(c3ccc4nnc(C(F)(F)F)n4n3)CC(F)(F)C2)c1` [Example 844]: the DC50 was found to be 0.78 µM.
For the compound `OC1(c2ccccc2Cl)CCN(c2ccc3nnc(C(F)(F)F)n3n2)CC1` [Example 315, 4-(2-chlorophenyl)-1-[3-(trifluoromethyl)[1,2,4]triazolo[4,3-b]pyridazin-6-yl]piperidin-4-ol], the DC50 is 2 µM.
Turning to `Cc1ncccc1CN1CC2CN(c3ccc4nnc(C(F)(F)F)n4n3)CC2C1` (centres unmarked) [Example 799], the DC50 stood at 1.6 µM.
For `CC(=O)c1ccc(N2CCN(c3ccc4nnc(C(F)(F)F)n4n3)CC2)cc1` [Example 17, 1-[4-[4-[3-(trifluoromethyl)-[1,2,4]triazolo[4,3-b]pyridazin-6-yl]piperazin-1-yl]phenyl]ethanone], the DC50 was determined as 2.5 µM.
Turning to `FC(F)(F)c1ccc(OCC2CCN(c3ccc4nnc(C(F)(F)F)n4n3)CC2)cc1` [Example 468], the DC50 was more than 11 µM.
With `CN1CCC(NC(=O)c2ccc(OC3CCN(c4ccc5nnc(C(F)(F)F)n5n4)CC3)cc2)CC1` [Example 427] the figure was 4.3 µM; with `CS(=O)(=O)c1cc(F)cc(CN2CCN(c3ccc4nnc(C(F)(F)F)n4n3)CC2)c1` [Example 778, 6-[4-[3-fluoro-5-(methylsulfonyl)benzyl]piperazin-1-yl]-3-(trifluoromethyl)[1,2,4]triazolo[4,3-b]pyridazine], 2.6 µM.
`COc1ccccc1S(=O)(=O)N1CCN(c2ccc3nnc(C(F)(F)F)n3n2)CC1` [Example 397]: the DC50 amounted to 3.9 µM.
For the compound `Fc1ccc(-c2cccc(CN3CCN(c4ccc5nnc(C(F)(F)F)n5n4)CC3)c2)cc1` [Example 125, 6-[4-[[3-(4-fluorophenyl)phenyl]methyl]piperazin-1-yl]-3-(trifluoromethyl)-[1,2,4]triazolo[4,3-b]pyridazine], the DC50 came out at 1.9 µM.
With `CNC(=O)c1cccc(C2CCN(c3ccc4nnc(C(F)(F)F)n4n3)CC2)c1` [Example 649] the figure was 2.3 µM; with `COc1ccccc1CN1CCN(c2ccc3nnc(C(F)(F)F)n3n2)CC1` [Example 75, 6-[4-[(2-methoxyphenyl)methyl]piperazin-1-yl]-3-(trifluoromethyl)-[1,2,4]triazolo[4,3-b]pyridazine], 2.3 µM; with `Cc1cccc(C)c1N1CCN(c2ccc3nnc(C(F)(F)Cl)n3n2)CC1` [Example 353, 3-[chloro(difluoro)methyl]-6-[4-(2,6-dimethylphenyl)piperazin-1-yl][1,2,4]triazolo[4,3-b]pyridazine], 0.69 µM.
Turning to `C[C@H]1CN(Cc2ccncc2)CCN1c1ccc2nnc(C(F)(F)F)n2n1` [Example 358, 6-[(2S)-2-methyl-4-(pyridin-4-ylmethyl)piperazin-1-yl]-3-(trifluoromethyl)[1,2,4]triazolo[4,3-b]pyridazine], the DC50 was determined as 6.7 µM.
As to `N#Cc1cccc(CN2CC3CN(c4ccc5nnc(C(F)(F)F)n5n4)CC3C2)c1` (centres unmarked) [Example 197, 3-[[5-[3-(trifluoromethyl)-[1,2,4]triazolo[4,3-b]pyridazin-6-yl]-1,3,3a,4,6,6a-hexahydropyrrolo[3,4-c]pyrrol-2-yl]methyl]benzonitrile], the DC50 stood at 0.82 µM.
For `N#Cc1ccc(CN2CC3CN(c4ccc5nnc(C(F)(F)F)n5n4)CC3C2)cn1` (centres unmarked) [Example 837, 5-[[5-[3-(trifluoromethyl)[1,2,4]triazolo[4,3-b]pyridazin-6-yl]hexahydropyrrolo[3,4-c]pyrrol-2(1H)-yl]methyl]pyridine-2-carbonitrile], the DC50 is 1.6 µM.
In the case of `OC1(c2cncc(C(F)(F)F)c2)CCN(c2ccc3nnc(C(F)(F)F)n3n2)CC1` [Example 320, 4-[5-(trifluoromethyl)pyridin-3-yl]-1-[3-(trifluoromethyl)[1,2,4]triazolo[4,3-b]pyridazin-6-yl]piperidin-4-ol], the DC50 is 8.6 µM.
As to `CN(CCN1CCCC1=O)C(=O)c1ccc(C2CCN(c3ccc4nnc(C(F)(F)F)n4n3)CC2)cc1` [Example 753, N-methyl-N-[2-(2-oxopyrrolidin-1-yl)ethyl]-4-[1-[3-(trifluoromethyl)[1,2,4]triazolo[4,3-b]pyridazin-6-yl]piperidin-4-yl]benzamide], the DC50 was found to be 2.1 µM.
As for `FC(F)(F)c1nnc2ccc(N3CCN(Cc4ccc(N5CCOCC5)cc4)CC3)nn12` [Example 160, 6-[4-[(4-morpholin-4-ylphenyl)methyl]piperazin-1-yl]-3-(trifluoromethyl)-[1,2,4]triazolo[4,3-b]pyridazine], the DC50 turned out to be 6.6 µM.
Turning to `FC(F)(F)c1nnc2ccc(N3CCC(Oc4ccc(Cl)cc4)CC3)nn12` [Example 724], the DC50 was 0.69 µM.
Take `CN(CCN1CCOCC1)C(=O)c1ccc(C2CCN(c3ccc4nnc(C(F)(F)F)n4n3)CC2)cc1` [Example 754, N-methyl-N-(2-morpholin-4-ylethyl)-4-[1-[3-(trifluoromethyl)[1,2,4]triazolo[4,3-b]pyridazin-6-yl]piperidin-4-yl]benzamide]: the DC50 was determined as 2.5 µM.
Next, `N#Cc1cnn(CCOc2ccc(C3CCN(c4ccc5nnc(C(F)(F)F)n5n4)CC3)cc2)c1` [Example 850]: 0.56 µM; `FC(F)(F)c1cccc(CN2CCN(c3ccc4nnc(C(F)(F)F)n4n3)CC2)c1` [Example 95, 3-(trifluoromethyl)-6-[4-[[3-(trifluoromethyl)phenyl]methyl]piperazin-1-yl]-[1,2,4]triazolo[4,3-b]pyridazine]: 0.67 µM.
Next, `FC(F)(F)c1nnc2ccc(N3CCC(Oc4cncc(Br)c4)CC3)nn12` [Example 722]: 4.1 µM; `N#Cc1ccccc1OCC1CCN(c2ccc3nnc(C(F)(F)F)n3n2)CC1` [Example 469]: 1.8 µM; `Fc1cccc(CN2CCN(c3ccc4nnc(C(F)(F)F)n4n3)CC2)c1` [Example 96, 6-[4-[(3-fluorophenyl)methyl]piperazin-1-yl]-3-(trifluoromethyl)-[1,2,4]triazolo[4,3-b]pyridazine]: more than 1.3 µM.
As for `O=C(c1cccc(OC2CCN(c3ccc4nnc(C(F)(F)F)n4n3)CC2)c1)N1CC[C@H](O)C1` [Example 700], the DC50 was determined as 7.1 µM.
Next, `FC(F)(F)c1nnc2ccc(N3CCC(c4ccc(OCCN5CCOCC5)cc4)CC3)nn12` [Example 731]: 1.1 µM; `Fc1ccccc1CN1CCN(c2ccc3nnc(C(F)(F)F)n3n2)CC1` [Example 72, 6-[4-[(2-fluorophenyl)methyl]piperazin-1-yl]-3-(trifluoromethyl)-[1,2,4]triazolo[4,3-b]pyridazine]: 1 µM; `CCCC(=O)N1CC2CN(c3ccc4nnc(C(F)(F)F)n4n3)CC2C1` (centres unmarked) [Example 34, 1-[2-[3-(trifluoromethyl)-[1,2,4]triazolo[4,3-b]pyridazin-6-yl]-1,3,3a,4,6,6a-hexahydropyrrolo[3,4-c]pyrrol-5-yl]butan-1-one]: 20 µM.
In the case of `CC(C)(c1ccc(F)cc1)N1CCN(c2ccc3nnc(C(F)(F)F)n3n2)CC1` [Example 309, 6-[4-[1-(4-fluorophenyl)-1-methylethyl]piperazin-1-yl]-3-(trifluoromethyl)[1,2,4]triazolo[4,3-b]pyridazine], the DC50 came out at 1.6 µM.
With `C[C@H](c1ccc(C#N)cc1)N1CCN(c2ccc3nnc(C(F)(F)F)n3n2)CC1` [Example 307, 4-[(1R)-1-[4-[3-(trifluoromethyl)[1,2,4]triazolo[4,3-b]pyridazin-6-yl]piperazin-1-yl]ethyl]benzonitrile] the figure was 3.4 µM; with `CS(=O)(=O)c1ccc(C2CCN(c3ccc4nnc(C(F)(F)F)n4n3)CC2)cc1` [Example 521], 5.4 µM; with `FC(F)(F)c1nnc2ccc(N3CCN(Cc4ccc(N5CCOCC5)nc4)CC3)nn12` [Example 143, 6-[4-[(6-morpholin-4-ylpyridin-3-yl)methyl]piperazin-1-yl]-3-(trifluoromethyl)-[1,2,4]triazolo[4,3-b]pyridazine], 8.8 µM.
`COc1ccc(CN2CCN(c3ccc4nnc(C(F)(F)F)n4n3)CC2)cn1` [Example 142, 6-[4-[(6-methoxypyridin-3-yl)methyl]piperazin-1-yl]-3-(trifluoromethyl)-[1,2,4]triazolo[4,3-b]pyridazine]: the DC50 was found to be 5.1 µM.

The values above are taken from patent US8003649B2 (AstraZeneca AB, priority 2007, dated 2011).
